These results are taken from patent publication US4845095A, “4-phenylpiperidine compounds and their use” (A/S Ferrosan, priority 1987, dated 1989).

The subject of the assay is acetic acid induced writhing syndrome. In words: acetic acid induced writhing syndrome in mice. Format: in vivo, mice (NMRI). As to conditions: for ED50: Mus musculus, sc, dose giving 50 per cent protection against writhings, s.c. 30 minutes before acetic acid 0.5 per cent i.p., writhings counted 5-15 minutes after; for inhibition (ED50 table): s.c. 30 minutes before acetic acid. The protocol:
The pharmaceutical properties of the compounds of the invention can be illustrated by determining their capability to antagonize the acetic acid induced writhing syndrome in mice.
In mice i.p. injection of acetic acid induces a writhing syndrome which is antagonized by analgesics (Siegmund et al., Proc. Soc. exp. Biol. 95, 729-731 (1957); Eckhardt et al., Proc. Soc. exp. Biol. 98, 186-188 (1958).
Test procedure: Acetic acid 0.5 per cent is injected i.p. (0.15 ml/10g body weight) to 6 mice (NMRI, either sex weighing 20-25 g) pretreated with physiological saline (controls) and to 6 mice pretreated with test substance. In the controls acetic acid induces a syndrome characterized by contraction of abdomen, turning of trunk and extension of hind limbs. Saline and test substances are administered s.c. 30 minutes before acetic acid. The number of writhings is counted 5-15 minutes after injection of acetic acid. The activity is expressed as per cent protection=
(Control drug)/Control×100
The effect of active substances is evaluated by a dose response curve, log dose on the abscissa, and per cent protection on the ordinate. The potency is expressed as the dose (ED50) in mg/kg giving 50 per cent protection against writhings. Test results obtained by testing some compounds of the invention will appear from the following table.

As to `CN1CCC(c2ccccc2)(c2nc(C3CC3)no2)CC1.Cl` [Compound 2, 1-methyl-4-(3-cyclopropyl-1,2,4-oxadiazol-5-yl)-4-phenylpiperidine hydrochloride], the ED50 is 7.6 mg/kg. On to `O=C(O)C(=O)O.c1ccc(OCCCCN2CCC(c3ccccc3)(c3nc(C4CC4)no3)CC2)cc1` [Compound 16, 4-(3-cyclopropyl-1,2,4-oxadiazol-5-yl)-1-(4-phenoxybutyl)-4-phenylpiperidine oxalate], for which the “inhibition (ED50 table)” value (at 10 (table head mg/kg)) is 34%. `Cc1noc(C2(c3ccccc3)CCN(C)CC2)n1.Cl` [Compound 1, 1-Methyl-4-(3-methyl-1,2,4-oxadiazol-5-yl)-4-phenylpiperidine hydrochloride] yielded an ED50 of 5.7 mg/kg.

As for `c1ccc(C2(c3nc(C4CC4)no3)CCNCC2)cc1` [Compound 13, 4-(3-cyclopropyl-1,2,4-oxadiazol-5-yl)-4-phenylpiperidine], the ED50 was determined as 2.9 mg/kg. On to `CON=CC1(c2ccccc2)CCN(C)CC1.O=C(O)C(=O)O` [Compound 10, 4-Methoxyiminomethyl-1-methyl-4-phenyl-piperidine oxalate], for which the median effective dose (ED50) amounted to 3.2 mg/kg. Consider `CN1CCC(c2ccccc2)(c2nc(-c3ccccc3)no2)CC1` [Compound 3, 1-methyl-4-(3-phenyl-1,2,4-oxadiazol-5-yl)-4-phenylpiperidine], for which the “inhibition (ED50 table)” value (at 3 (table head mg/kg)) is on record as 41%. Regarding `CCOC(=O)C1(c2ccccc2)CCN(C)CC1` [Pethidine, reference compound], the ED50 was determined as 9.25 mg/kg. The compound `COCc1noc(C2(c3ccccc3)CCN(C)CC2)n1.Cl` [Compound 4, 1-methyl-4-(3-methoxymethyl-1,2,4-oxadiazol-5-yl)-4-phenylpiperidine hydrochloride] returned an ED50 of 3 mg/kg.
